Reference: patent US9328374B2, “Selective culture medium and method for detecting carbapenem-resistant bacteria in a test sample” (Institut National de la Sante et de la Recherche Medicale …, priority 2011, dated 2016)
Read-outs that look alike come from different tables or passages of the source.

Key:
Assay in all cases: MIC of imipenem, ertapenem and meropenem
E. coli = assay type: cell-based, Escherichia coli; settings: Escherichia coli
P. mirabilis = assay type: cell-based
P. stuartii = assay type: cell-based, Providencia stuartii

Compound: C[C@@H](O)[C@H]1C(=O)N2C(C(=O)O)=C(S[C@@H]3CN[C@H](C(=O)Nc4cccc(C(=O)O)c4)C3)[C@H](C)[C@H]12 [ETP, ertapenem]
- MIC (E. coli; E. coli 1020, CTX-M-1 + TEM-1, non-carbapenemase producer): 0.023 µg/mL
- MIC (E. coli; E. coli 1023, CTX-M-2 + TEM-1, non-carbapenemase producer, read-out: MIC): 0.016 µg/mL
- MIC (E. coli; E. coli 1034, TEM-1 + SHV-38, non-carbapenemase producer, read-out: MIC): 0.006 µg/mL
- MIC (E. coli; E. coli 1048, TEM-1 + SHV-2a, non-carbapenemase producer, read-out: MIC): 0.012 µg/mL
- MIC (E. coli; E. coli 1082 (TEM-1)): 0.019 µg/mL
- MIC (E. coli; E. coli 1082, TEM-1, non-carbapenemase producer): 0.019 µg/mL
- MIC (E. coli; E. coli 1092, OXA-1, non-carbapenemase producer, read-out: MIC): 0.19 µg/mL
- MIC (E. coli; E. coli 6252, (wild type), non-carbapenemase producer): 0.004 µg/mL
- MIC (E. coli; E. coli 10121, CTX-M-2, non-carbapenemase producer, read-out: MIC): 0.016 µg/mL
- MIC (E. coli; E. coli 1108013, IMP-1 + TEM-1, read-out: MIC): 4 µg/mL
- MIC (E. coli; E. coli AUS (NDM-1 + CTX-M-15 + TEM-1), read-out: MIC): 32 µg/mL
- MIC (E. coli; E. coli AUS, NDM-1 + TEM-1 + CTX-M-15, read-out: MIC): 32 µg/mL
- MIC (E. coli; E. coli BER (OXA-48 + CTX-M-15), read-out: MIC): 1.5 µg/mL
- MIC (E. coli; E. coli BER, OXA-48 + TEM-1 + CTX-M-15, read-out: MIC): 1.5 µg/mL
- MIC (E. coli; E. coli BOK (OXA-48 + CTX-M-15), read-out: MIC): 0.38 µg/mL
- MIC (E. coli; E. coli BOK, OXA-48 + CTX-M-15, read-out: MIC): 0.38 µg/mL
- MIC (E. coli; E. coli BON (OXA-48 + CTX-M-24 + TEM-1), read-out: MIC): 0.5 µg/mL
- MIC (E. coli; E. coli BON, OXA-48 + TEM-1 + CTX-M-24, read-out: MIC): 0.5 µg/mL
- MIC (E. coli; E. coli BOU (OXA-48 + CTX-M-15), read-out: MIC): 0.75 µg/mL
- MIC (E. coli; E. coli BOU, OXA-48 + CTX-M-15, read-out: MIC): 0.75 µg/mL
- MIC (E. coli; E. coli COL (KPC-2), read-out: MIC): 4 µg/mL
- MIC (E. coli; E. coli COL, KPC-2 + TEM-1 + CTX-M-9, read-out: MIC): 4 µg/mL
- MIC (E. coli; E. coli DIH (VIM-19), read-out: MIC): 16 µg/mL
- MIC (E. coli; E. coli DIH, VIM-19, read-out: MIC): 16 µg/mL
- MIC (E. coli; E. coli DIN, KPC-2 + TEM-1 + OXA-1, read-out: MIC): > 32 µg/mL
- MIC (E. coli; E. coli E14 (CTX-M-14), read-out: MIC): 0.12 µg/mL
- MIC (E. coli; E. coli E14, CTX-M-14, non-carbapenemase producer, read-out: MIC): 0.012 µg/mL
- MIC (E. coli; E. coli ECA, ACC-1, non-carbapenemase producer, read-out: MIC): 0.012 µg/mL
- MIC (E. coli; E. coli EVB, VEB-1, non-carbapenemase producer, read-out: MIC): 0.012 µg/mL
- MIC (E. coli; E. coli FOR, CTX-M-15, non-carbapenemase producer, read-out: MIC): 0.012 µg/mL
- MIC (E. coli; E. coli GEN (NDM-1 + OXA-1 + CMY-30 + TEM-1), read-out: MIC): > 32 µg/mL
- MIC (E. coli; E. coli GEN, NDM-1 + TEM-1 + CMY-30 + OXA-1, read-out: MIC): > 32 µg/mL
- MIC (E. coli; E. coli GOG (OXA-48 + CTX-M-24), read-out: MIC): 1.5 µg/mL
- MIC (E. coli; E. coli MET, Chromosome-encoded extended-spectrum cephalosporinase, non-carbapenemase producer, read-out: MIC): 0.012 µg/mL
- MIC (E. coli; E. coli NAA (OXA-48 + CTX-M-24), read-out: MIC): 2 µg/mL
- MIC (E. coli; E. coli OM3, OXA-48 + TEM-1 + CTX-M-15, read-out: MIC): 1 µg/mL
- MIC (E. coli; E. coli OM20, NDM-1 + TEM-1 + CTX-M-15, read-out: MIC): > 32 µg/mL
- MIC (E. coli; E. coli OM22, OXA-48 + TEM-1 + CTX-M-15, read-out: MIC): 1 µg/mL
- MIC (E. coli; E. coli PSP (KPC-2), read-out: MIC): 0.5 µg/mL
- MIC (E. coli; E. coli PSP, KPC-2 + TEM-1 + OXA-1, read-out: MIC): 0.5 µg/mL
- MIC (E. coli; E. coli RIC (NDM-1 + OXA-1 + OXA-10 + CMY-16), read-out: MIC): 3 µg/mL
- MIC (E. coli; E. coli RIC, NDM-1 + CMY-16 + OXA-1 + OXA-10, read-out: MIC): 3 µg/mL
- MIC (E. coli; E. coli ROB (OXA-48), read-out: MIC): 0.75 µg/mL
- MIC (E. coli; E. coli ROB, OXA-48, read-out: MIC): 0.75 µg/mL
- MIC (E. coli; E. coli SYD, CMY-2, non-carbapenemase producer, read-out: MIC): 0.012 µg/mL
- MIC (E. coli; E. coli TWA, IMP-8 + SHV-12, read-out: MIC): 8 µg/mL
- MIC (E. coli; E. coli ZAN, OXA-48 + TEM-1 + CTX-M-14, read-out: MIC): 8 µg/mL
- MIC (E. coli; strain E. coli 1008, TEM-1 + CTX-M-1, non-carbapenemase producer, read-out: MIC): 0.016 µg/mL
- MIC (E. coli; strain E. coli 1034, TEM-1 + SHV-38, non-carbapenemase producer, read-out: MIC): 0.006 µg/mL
- MIC (E. coli; strain E. coli 1048, TEM-1 + SHV-2a, non-carbapenemase producer, read-out: MIC): 0.012 µg/mL
- MIC (E. coli; strain E. coli 10121, CTX-M-2, non-carbapenemase producer, read-out: MIC): 0.016 µg/mL
- MIC (E. coli; strain E. coli AME, OXA-48 + CTX-M-24, read-out: MIC): 0.5 µg/mL
- MIC (E. coli; strain E. coli BON, OXA-48 + TEM-1 + CTX-M-24, read-out: MIC): 0.5 µg/mL
- MIC (P. mirabilis; P. mirabilis PMA (ACC-1)): 0.094 µg/mL
- MIC (P. mirabilis; Proteus mirabilis, P. mirabilis 1031 (CTX-M-14 + TEM-1 + SHV-11), read-out: MIC): 0.047 µg/mL
- MIC (P. mirabilis; Proteus mirabilis, P. mirabilis 1031, CTX-M-14 + TEM-1 + SHV-11, non-carbapenemase producer, read-out: MIC): 0.047 µg/mL
- MIC (P. mirabilis; Proteus mirabilis, P. mirabilis PMA (ACC-1), read-out: MIC): 0.12 µg/mL
- MIC (P. mirabilis; Proteus mirabilis, P. mirabilis PMA, ACC-1, non-carbapenemase producer, read-out: MIC): 0.094 µg/mL
- MIC (P. stuartii; P. stuartii PS1 (NDM-1 + CMY-6 + OXA-1)): 0.38 µg/mL
- MIC (P. stuartii; P. stuartii PS1, NDM-1 + CMY-6 + OXA-1): 0.38 µg/mL
- MIC (P. stuartii; Providencia stuartii, P. stuartii NDM (NDM-1 + OXA-1 + CMY-6), read-out: MIC): 0.38 µg/mL
- MIC (P. stuartii; strain P. stuartii PS1, NDM-1 + CMY-6 + OXA-1): 0.38 µg/mL
